From US11578265B2, “AIEgens for cancer cell imaging” (THE HONG KONG UNIVERSITY OF SCIENCE AND TECHNOLOGY, priority 2016, dated 2023) come the findings set out here.

A short description of series [1]: UV-vis and photoluminescence properties of 2TPE-4E. It is filed as physicochemical. On the procedure:
The photophysical properties of 2TPE-4E were investigated by UV-vis (FIG. 7A) and photoluminescence (PL) spectra. […] The high ε means 2TPE-4E could be excited by a weak laser power, which is beneficial for bio-application due to the weak photo-damage and photobleaching.
Although the film of 2TPE-4E looked bright, its quantum yield (QY) was measured to be around 6%, which can probably be ascribed to the high molar extinction coefficient. […] With the water fraction (fw) increasing, 2TPE-4E began to aggregate and gave a highest intensity at a fw of 90% due to the restriction of intramolecular rotation.

Series [2] is described as follows: Water solubility of CSPP. It is filed as physicochemical. From the text: The design and synthesis of the present subject matter was inspired by the simple design and synthesis of ASCP, which was further modified and the hydrophilicity was improved. To prevent denature of antibodies during conjugation, aqueous solution was used for the reaction. A water-soluble AIEgen having a long wavelength in absorption and emission was required. Piperazine (PZ) was introduced to the structure and served as the electron donating group and hydrophilic group; pyridium (Py) salt was kept as the strong electron withdrawing group and hydrophilic group; and α-Cyanostilbene was the core skeleton for attributing AIE characteristics. As such, a new AIEgen, CSPP, was synthesized by Knoevenagel condensation and Suzuki coupling and the targeted compound was successfully obtained. CSPP carries two positive charges, thus enjoying high water-solubility, and its donor-acceptor structure contributes to a long-wavelength absorption, as well as emission. The synthetic route to CSPP and CSPP—NHS is shown below, with the scheme of synthesis following.

In series [3] the test system is HCC827 cells. Description: Cell imaging of CSPP and co-staining with MitoTracker Green. It is filed as cell-based, human. To be noted: 5 μM. On the procedure: The cell imaging of CSPP molecule was also checked (FIG. 23). […] After 8 hours of incubation, more dyes entered and accumulated in the mitochondria of the cells due to targeting of the pyridium group.
Series [4] relates to HCC827 cells. Put plainly: CCK-8 cell viability with CSPP. It is filed as cell-based, human. To be noted: HCC827, CSPP up to 50 μM, 24 hours. Here is the method: (§1) HCC827 and NCI-H23 cells were seeded for 24 hours and incubated in CSPP of different concentration for 24 hours. Data given are the mean±SD (n=4). Before CSPP was further functionalized for antibody labeling, its biocompatibility was verified by CCK-8 assay (FIG. 22).

Series [5] relates to NCI-H23 cells. Put plainly: CCK-8 cell viability with CSPP. It is filed as cell-based. To be noted: NCI-H23, CSPP up to 50 μM, 24 hours. Here is the method:
as §1

Series [6] is described as follows: Photophysical properties of CSPP. It is filed as physicochemical. Here is the method:
Inset: photographs of CSPP in water/iPrOH mixtures with 0% and 99% iPrOH fractions taken under 365 nm UV irradiation; (c) PL spectrum of CSPP in water/glycerol mixtures with different glycerol fractions (fG); and (d) plot of I/I0 at 620 nm versus fG, where I0 was the PL intensity in pure water. Inset: plot of log I against log η, where η was the solution viscosity. Concentration: 10 μM; λex: 400 nm.
The photophysical properties of CSPP were studied. […] However, the emission was enhanced at 640 nm in increments of isopropanol fraction (FIGS. 20a and b), which is a signature of AIE. The free intramolecular motion of a molecularly dissolved state in aqueous solution was in favor of non-radiative decay.
Addition of isopropanol induced the formation of aggregates and restricted the intramolecular motion (RIM), activating the radiative channel. Similarly, intramolecular motion can also be restricted in a highly viscous condition.

Some results are limits rather than exact numbers.

Regarding `CCN(CC)c1ccc(C(=C(c2ccccc2)c2ccc(C#CC#CC#CC#Cc3ccc(C(=C(c4ccc(N(CC)CC)cc4)c4ccc(N(CC)CC)cc4)c4ccccc4)cc3)cc2)c2ccc(N(CC)CC)cc2)cc1` [2TPE-4E], the maximum absorption in series [1] is 473 nm. Moreover, the “water fraction (fw) giving highest emission intensity” value in series [1] (THF/water mixtures) was 90%. For the same compound, the “emission in dilute THF solution” value in series [1] (dilute THF) was “very weak emission”. The “molar extinction coefficient (ε)” value in series [1] (dilute THF solution and thin film) was “about 7×10^4 M^−1 cm^−1”. Further, the “quantum yield (QY)” value in series [1] (film) is given as “around 6%”. In series [1] (thin film), this compound gave a solid emission wavelength of 630 nm.
Turning to `C[n+]1ccc(-c2ccc(/C(C#N)=C/c3ccc(N4CC[N+](C)(C)CC4)cc3)cc2)cc1.[I-].[I-]` [CSPP, (Z)-4-(4-(2-cyano-2-(4-(1-methylpyridin-1-ium-4-yl)phenyl)vinyl)phenyl)-1,1-dimethylpiperazin-1-ium iodide], the water solubility result in series [2] was “water-soluble”. In addition, the “emission from stained cells” value was “no emission” in series [3] (30 minutes) and “mitochondria lit up” in series [3] (8 hours). For the same compound, in series [3] (8 hours, co-staining), the “Pearson correlation coefficient with MitoTracker Green” value is 0.80. The cell viability result is on record as “above 90%” in series [4] and more than 81% in series [5]. In addition, the “λmax, abs” value in series [6] (Aggregates in 99% isopropanol) was determined as 400 nm; in series [6] (In 95% glycerol), 405 nm; in series [6] (In water), 395 nm. The “λmax, em” value in series [6] (Aggregates in 99% isopropanol) stood at 624 nm; in series [6] (In 95% glycerol), 610 nm; in series [6] (In water), 640 nm. The figures for the φF in series [6] (Aggregates in 99% isopropanol), in series [6] (In 95% glycerol) and in series [6] (In water) were 5.6%, 13.7% and 0.9%, respectively. Further, the “emission in pure water” value in series [6] (pure water) is “very weak emission”.
